Assay results: article PMC13128454, “Mutant p53 protein accumulation is selectively targetable by proximity-inducing drugs” (Nature Chemical Biology, 2025)
“And” between values parts separate entries of the source, which are not always exact repeats. Equal entries are not always repeated. Where two headings read alike, the source gives them in different places.

Legend:
Assay type in all cases: cell-based
[1] = test system: Halo–p53-Y220C ΔTAD–mCherry 293T cells; test: annexin–PI staining; conditions: for P3_avg (P3 = early apoptotic) / P5_avg (P5 = late apoptotic): Cell_Line Y220C, proportion of cells; for avgprop_P3 / avgprop_P4 / avgprop_P5 / avgprop_P2 / P2_viable / P3_AnnexinPos_PIneg / P4_PIpos_AnnexinNeg / P5_PIpos_Annexinpos / prop_P3 / prop_P4 / prop_P5 / prop_P2: Y220C; for avgprop_P3: average proportion AnnexinPos PIneg; for avgprop_P4: average proportion PIpos AnnexinNeg; for avgprop_P5: average proportion PIpos Annexinpos; for avgprop_P2: average proportion viable; for P2_viable / P3_AnnexinPos_PIneg / P4_PIpos_AnnexinNeg / P5_PIpos_Annexinpos: event count; for P2_viable / P3_AnnexinPos_PIneg / P4_PIpos_AnnexinNeg / P5_PIpos_Annexinpos / prop_P3 / prop_P4 / prop_P5 / prop_P2: single replicate; for prop_P3: proportion AnnexinPos PIneg; for prop_P4: proportion PIpos AnnexinNeg; for prop_P5: proportion PIpos Annexinpos; for prop_P2: proportion viable
Protocol: (§1) Cells were plated in six-well plates and treated with varying concentrations of compounds for 1 day. Cells were stained with annexin V–AF488 and PI following the manufacturer’s instructions (Thermo Fisher, V13241) and analyzed by flow cytometry (Beckman CytoFLEX LX), using untreated cells to establish gates.

[2] = test system: parental 293T cells; test: annexin–PI staining; conditions: for P3_avg (P3 = early apoptotic) / P5_avg (P5 = late apoptotic): Cell_Line WT, proportion of cells; for avgprop_P3 / avgprop_P4 / avgprop_P5 / avgprop_P2 / P2_viable / P3_AnnexinPos_PIneg / P4_PIpos_AnnexinNeg / P5_PIpos_Annexinpos / prop_P3 / prop_P4 / prop_P5 / prop_P2: WT; for avgprop_P3: average proportion AnnexinPos PIneg; for avgprop_P4: average proportion PIpos AnnexinNeg; for avgprop_P5: average proportion PIpos Annexinpos; for avgprop_P2: average proportion viable; for P2_viable / P3_AnnexinPos_PIneg / P4_PIpos_AnnexinNeg / P5_PIpos_Annexinpos: event count; for P2_viable / P3_AnnexinPos_PIneg / P4_PIpos_AnnexinNeg / P5_PIpos_Annexinpos / prop_P3 / prop_P4 / prop_P5 / prop_P2: single replicate; for prop_P3: proportion AnnexinPos PIneg; for prop_P4: proportion PIpos AnnexinNeg; for prop_P5: proportion PIpos Annexinpos; for prop_P2: proportion viable
Protocol: as §1

[3] = test system: parental 293T cells; test: cell-cycle analysis (DNA content, DAPI flow cytometry); conditions: 1 day; for 2N / 4N / Right_of_Gate1 (replicates) / Right_of_Gate2 (replicates): WT
Protocol: Cells were split into a 10-cm dish at low confluency (20%) and grown overnight. Cells were synchronized using overnight treatment with palbociclib (150 nM), washed and split into a six-well plate for treatment with compound for 24 h. Cells were harvested by trypsinization, washed twice with cold 1× PBS, fixed by dropwise addition of ice-cold 70% ethanol while vortexing and incubated overnight (4 °C). Fixed samples were centrifuged at 1,000g for 5 min and 70% ethanol was removed. Cells were washed twice with 1× PBS + 1% BSA before DNA labeling with 1 µg ml^−1 DAPI for 10 min at room temperature, before being analyzed for DNA content by flow cytometry (Beckman CytoFLEX LX).

[4] = test system: p53 luciferase transcriptional reporter in Huh7 cells; test: p53 luciferase reporter assay; conditions: for p53 luciferase reporter signal (normalized), replicates: Huh7
Protocol: (§2) Huh7 and MFE319 cell lines stably expressing a p53 reporter (Addgene, 90363)[59] were generated. Cells were plated in 384-well plates (1,500 cells per well) and treated with varying concentrations of compound. Then, 16 h after treatment, firefly luciferase substrate was added to the cells and luminescence was monitored using an EnVision 2105 multimode plate reader.

[5] = test system: p53 luciferase transcriptional reporter in MFE319 cells; test: p53 luciferase reporter assay; conditions: for p53 luciferase reporter signal (normalized), replicates: MFE319
Protocol: as §2

[6] = viability with doxycycline-inducible construct; conditions: human, dox 0, read-out: mean_norm (normalized viability)
Protocol: (§3) Cells were plated in 384-well plates (typically 1,500 cells per well) with varying concentrations of compounds, with a total volume of 50 μl per well. CTG reagent was added (25 μl) to the solutions, mixed and read out using an EnVision 2105 multimode plate reader.

[7] = test system: 293T cells expressing a dox inducible Halo–p53-Y220C ΔTAD–mCherry; test: viability with doxycycline-inducible construct
Protocol: as §3

[8] = Conc 0.38 (unit not given; p53-01 in μM, BI2536 in nM)
[9] = Conc 0.75 (unit not given; p53-01 in μM, BI2536 in nM)
[10] = Conc 1.50 (unit not given; p53-01 in μM, BI2536 in nM)

## CC[C@@H]1C(=O)N(C)c2cnc(Nc3ccc(C(=O)NCCOCCOCCOCCOCCC(=O)N4CCC(Nc5cccc6c5cc(C#CCNc5ccc(S(C)(=O)=O)cc5OC)n6CC(F)(F)F)CC4)cc3OC)nc2N1C1CCCC1 [p53-01, PMV6-PEG4-BI2536]
[1]; Concentration 0.75
  P3_avg (P3 = early apoptotic): 0.07971
  P5_avg (P5 = late apoptotic): 0.02225
  avgprop_P3: 0.07971
  avgprop_P4: 0.05038
  avgprop_P5: 0.02225
  avgprop_P2: 0.8477
  P2_viable: 1654 and 1707 and 1670
  P3_AnnexinPos_PIneg: 165 and 158 and 150
  P4_PIpos_AnnexinNeg: 95 and 98 and 106
  P5_PIpos_Annexinpos: 45 and 43 and 44
  prop_P3: 0.08423 and 0.07876 and 0.07614
  prop_P4: 0.04849 and 0.04885 and 0.05381
  prop_P5: 0.02297 and 0.02144 and 0.02234
  prop_P2: 0.8443 and 0.8509 and 0.8477
[1]; Concentration 1.5
  P3_avg (P3 = early apoptotic): 0.2575
  P5_avg (P5 = late apoptotic): 0.07698
  avgprop_P3: 0.2575
  avgprop_P4: 0.06957
  avgprop_P5: 0.07698
  avgprop_P2: 0.5959
  P2_viable: 912 and 887 and 871
  P3_AnnexinPos_PIneg: 381 and 378 and 395
  P4_PIpos_AnnexinNeg: 104 and 92 and 116
  P5_PIpos_Annexinpos: 109 and 111 and 125
  prop_P3: 0.253 and 0.2575 and 0.2621
  prop_P4: 0.06906 and 0.06267 and 0.07697
  prop_P5: 0.07238 and 0.07561 and 0.08295
  prop_P2: 0.6056 and 0.6042 and 0.578
[2]; Concentration 0.75
  P3_avg (P3 = early apoptotic): 0.05911
  P5_avg (P5 = late apoptotic): 0.02085
  avgprop_P3: 0.05911
  avgprop_P4: 0.03071
  avgprop_P5: 0.02085
  avgprop_P2: 0.8893
  P2_viable: 1988 and 1975 and 1922
  P3_AnnexinPos_PIneg: 134 and 116 and 141
  P4_PIpos_AnnexinNeg: 58 and 71 and 74
  P5_PIpos_Annexinpos: 48 and 44 and 46
  prop_P3: 0.06014 and 0.05258 and 0.06459
  prop_P4: 0.02603 and 0.03218 and 0.0339
  prop_P5: 0.02154 and 0.01995 and 0.02107
  prop_P2: 0.8923 and 0.8953 and 0.8804
[2]; Concentration 1.5
  P3_avg (P3 = early apoptotic): 0.05067
  P5_avg (P5 = late apoptotic): 0.02081
  avgprop_P3: 0.05067
  avgprop_P4: 0.03243
  avgprop_P5: 0.02081
  avgprop_P2: 0.8961
  P2_viable: 1971 and 1980 and 1990
  P3_AnnexinPos_PIneg: 112 and 109 and 115
  P4_PIpos_AnnexinNeg: 75 and 68 and 72
  P5_PIpos_Annexinpos: 48 and 43 and 47
  prop_P3: 0.05077 and 0.04955 and 0.05171
  prop_P4: 0.034 and 0.03091 and 0.03237
  prop_P5: 0.02176 and 0.01955 and 0.02113
  prop_P2: 0.8935 and 0.9 and 0.8948
[3]; 0.75 μM, synchronized cells
  DNA content: unaffected
[3]; [8]
  2N: 59.15
  4N: 37.20
  Right_of_Gate1 (replicates): 40.85 and 40.98 and 41.52
  Right_of_Gate2 (replicates): 3.65 and 3.77 and 3.58
[3]; [9]
  2N: 59.00
  4N: 37.55
  Right_of_Gate1 (replicates): 41.00 and 43.44 and 43.05
  Right_of_Gate2 (replicates): 3.45 and 3.41 and 3.53
[3]; [10]
  2N: 35.77
  4N: 52.80
  Right_of_Gate1 (replicates): 64.23 and 64.42 and 63.80
  Right_of_Gate2 (replicates): 11.43 and 12.05 and 12.32
[4]; 16 h, PMV6 at doses of 1.25–10 μM
  induction of p53 reporter: no such effect
[4]; log Concentration (pM) 4.59176
  p53 luciferase reporter signal (normalized), replicates: 0.9363 (2×) and 1.029 and 0.989 (2×) and 0.8835
[4]; log Concentration (pM) 4.89279
  p53 luciferase reporter signal (normalized), replicates: 1.081 and 0.9758 and 1.0022 and 1.095 and 1.147 and 0.9363
[4]; log Concentration (pM) 5.19382
  p53 luciferase reporter signal (normalized), replicates: 0.8967 and 0.9231 and 0.9363 and 0.9758 and 1.095 and 1.081
[4]; log Concentration (pM) 5.49485
  p53 luciferase reporter signal (normalized), replicates: 1.015 and 0.9363 and 1.029 and 1.0022 and 1.108 and 1.095
[4]; log Concentration (pM) 5.79588
  p53 luciferase reporter signal (normalized), replicates: 1.055 (2×) and 1.095 and 0.9495 and 0.9231 (2×)
[4]; log Concentration (pM) 6.09691
  p53 luciferase reporter signal (normalized), replicates: 0.9099 and 0.9626 and 0.9231 and 1.0022 and 0.9758 and 0.8835
[4]; log Concentration (pM) 6.39794
  p53 luciferase reporter signal (normalized), replicates: 0.9495 and 1.029 and 0.9758 and 1.0022 and 1.015 and 1.042
[4]; log Concentration (pM) 6.69897
  p53 luciferase reporter signal (normalized), replicates: 0.9363 and 0.9231 and 1.042 and 1.095 and 1.068 and 0.8835
[4]; log Concentration (pM) 7
  p53 luciferase reporter signal (normalized), replicates: 0.9363 and 1.0022 (3×) and 1.015 and 0.9758
[5]; 16 h
  induction of p53 reporter: no induction of luciferase activity
[5]; log Concentration (pM) 4.59176
  p53 luciferase reporter signal (normalized), replicates: 0.9836 and 1.068 and 1.04 and 1.096 and 1.012 and 0.9977
[5]; log Concentration (pM) 4.89279
  p53 luciferase reporter signal (normalized), replicates: 1.026 and 1.11 and 0.9977 and 0.9555 and 1.04 and 1.096
[5]; log Concentration (pM) 5.19382
  p53 luciferase reporter signal (normalized), replicates: 0.9836 and 1.11 and 1.04 and 1.082 (2×) and 1.096
[5]; log Concentration (pM) 5.49485
  p53 luciferase reporter signal (normalized), replicates: 0.9696 and 0.9977 and 1.012 (2×) and 1.082 and 1.04
[5]; log Concentration (pM) 5.79588
  p53 luciferase reporter signal (normalized), replicates: 0.9696 and 1.096 (3×) and 1.068 and 0.9274
[5]; log Concentration (pM) 6.09691
  p53 luciferase reporter signal (normalized), replicates: 1.152 and 1.068 and 1.012 (2×) and 1.124 and 1.04
[5]; log Concentration (pM) 6.39794
  p53 luciferase reporter signal (normalized), replicates: 0.9977 (2×) and 1.068 and 1.096 and 1.012 and 0.9836
[5]; log Concentration (pM) 6.69897
  p53 luciferase reporter signal (normalized), replicates: 1.012 (4×) and 0.9977 and 1.04
[5]; log Concentration (pM) 7
  p53 luciferase reporter signal (normalized), replicates: 1.054 and 0.9836 (2×) and 1.082 (2×) and 0.8431
[6]; Concentration 156.25
  viability: 99.3%
[6]; Concentration 312.5
  viability: 95.6%
[6]; Concentration 625
  viability: 95.7%
[6]; Concentration 1250
  viability: 95.8%
[6]; Concentration 2500
  viability: 77.5%
[6]; Concentration 5000
  viability: 60.1%
[7]; dox 0, 100, 1000 ng/mL, 4 days
  change of potency upon doxycycline induction: approximately twofold
[7]; dox 0, Concentration 39.0625
  mean_norm (normalized viability): 0.9911
[7]; dox 0, Concentration 78.125
  mean_norm (normalized viability): 0.9922
[7]; dox 0, Concentration 10000
  mean_norm (normalized viability): 0.4681
[7]; dox 100, Concentration 39.0625
  mean_norm (normalized viability): 0.9915
[7]; dox 100, Concentration 78.125
  mean_norm (normalized viability): 1.002
[7]; dox 100, Concentration 156.25
  mean_norm (normalized viability): 0.9543
[7]; dox 100, Concentration 312.5
  mean_norm (normalized viability): 0.9412
[7]; dox 100, Concentration 625
  mean_norm (normalized viability): 0.8872
[7]; dox 100, Concentration 1250
  mean_norm (normalized viability): 0.7055
[7]; dox 100, Concentration 2500
  mean_norm (normalized viability): 0.6021
[7]; dox 100, Concentration 5000
  mean_norm (normalized viability): 0.3858
[7]; dox 100, Concentration 10000
  mean_norm (normalized viability): 0.3055
[7]; dox 1000, Concentration 39.0625
  mean_norm (normalized viability): 0.9926
[7]; dox 1000, Concentration 78.125
  mean_norm (normalized viability): 1.004
[7]; dox 1000, Concentration 156.25
  mean_norm (normalized viability): 1.0052
[7]; dox 1000, Concentration 312.5
  mean_norm (normalized viability): 0.8955
[7]; dox 1000, Concentration 625
  mean_norm (normalized viability): 0.8604
[7]; dox 1000, Concentration 1250
  mean_norm (normalized viability): 0.7628
[7]; dox 1000, Concentration 2500
  mean_norm (normalized viability): 0.5571
[7]; dox 1000, Concentration 5000
  mean_norm (normalized viability): 0.3298
[7]; dox 1000, Concentration 10000
  mean_norm (normalized viability): 0.194
